Patent publication US20170193176A1, “System, Method, and Software for Improved Drug Efficacy and Safety in a Patient” (Insilico Medicine, Inc., priority 2015, published 2017)

System: renal cancer patients
Experiment: Clinical outcome of renal cancer patients treated with targeted drugs (nibs)
Assay type: in vivo, human
Settings: for # of transcriptomes taken from responders: sustained stabilization of tumor progress; for # of transcriptomes taken from non-responders: tumor progression despite the applied treatment
Method: A set of samples taken from the tumors of renal cancer patients who were treated at Clinical Hospital of the Hertzen Cancer Institute in Moscow. These samples were examined using the Illumina HT-12 platform at Medical Center of Lethbridge University in Canada. As a reference normal renal tissue, the dataset GSE49972 (Karlsson et al., 2014) obtained on the same platform, was used. […] The overview of renal cancer transcriptomes selected for the V-dataset, is shown below in Table 3.
As an example, we list here the details of case history for one of the patient, who has been a responder to Sunitinib treatment.
Person; the clear cell cancer in left kidney; disease progression stage T3N0M1, distant metastases to lungs and skeleton. Surgery has not been performed due to the overall progression of the disease. Before the chemotherapy for distant metastases, the patient received the symptomatic radiation therapy of 30 Gy on the pelvic and femoral zone. Two months after the patient received the neo-adjuvant Sunitinib therapy in overall dose of 50 mg.
As long as two years after the treatment, the patient was still alive and continued to receive the adjuvant Sunitinib therapy.

| SMILES | # of transcriptomes taken from responders | # of transcriptomes taken from non-responders |
| --- | --- | --- |
| Cc1ccc(Nc2nccc(N(C)c3ccc4c(C)n(C)nc4c3)n2)cc1S(N)(=O)=O [Pazopanib] | 4 | 3 |
| CNC(=O)c1cc(Oc2ccc(NC(=O)Nc3ccc(Cl)c(C(F)(F)F)c3)cc2)ccn1 [Sorafenib] | 13 | 15 |
| CCN(CC)CCNC(=O)c1c(C)[nH]c(/C=C2\C(=O)Nc3ccc(F)cc32)c1C [Sunitinib] | 5 | 10 |
